Assays:
Type in all cases: in vivo
[1] = tested on: Matricaria inodora (MATIN); experiment: Herbicidal pre-emergence action, test D, single sowings (Table D6); conditions: dosage 80 g/ha, scored after about 3 weeks
Text: (§1) Seeds of monocotyledonous and dicotyledonous weed plants were laid out in plastic or organic plant pots (single sowings with one species of mono- or dicotyledonous weed plant per pot) and covered with soil. The compounds of the invention, formulated in the form of wettable powders (WP) or as emulsion concentrates (EC), were then applied to the surface of the covering soil as aqueous suspension or emulsion with addition of 0.5% additive at a water application rate equivalent to 600 l/ha (converted). After the treatment, the pots were placed in a greenhouse and kept under good growth conditions for the test plants. After about 3 weeks, the effect of the preparations was scored visually in comparison with untreated controls as percentages. For example, 100% activity=the plants have died, 0% activity=like control plants. Tables D1 to D8 below show the effects of selected compounds of the general formula (I) according to Table 1 on various harmful plants and an application rate corresponding to 80 g/ha, which were obtained by the experimental procedure mentioned above.

[2] = tested on: Abutilon theophrasti (ABUTH); experiment: Herbicidal pre-emergence action, test D, single sowings (Table D4); conditions: dosage 80 g/ha, scored after about 3 weeks
Text: as §1

[3] = tested on: Digitaria sanguinalis (DIGSA); experiment: Herbicidal pre-emergence action, test D, single sowings (Table D2); conditions: 80 g/ha; scored visually after about 3 weeks; 100% = plants have died, 0% = like control plants
Text: as §1

viola tricolor (VIOTR) = experiment: Herbicidal pre-emergence action, test D, single sowings (Table D7); conditions: dosage 80 g/ha, scored after about 3 weeks
Text: as §1

[4] = tested on: harmful plants ALOMY, DIGSA, SETVI, ABUTH, AMARE, MATIN, VIOTR and VERPE; experiment: Herbicidal pre-emergence action (test D), summary of Tables D1-D8; conditions: application rate of 80 g of active ingredient per hectare; summary in words
Text: as §1, with “plants.” for “plants. Tables D1 to D8 below show the effects of selected compounds of the general formula (I) according to Table 1 on various harmful plants and an application rate corresponding to 80 g/ha, which were obtained by the experimental procedure mentioned above.”
Tables D1 to D8 below show the effects of selected compounds of the general formula (I) according to Table 1 on various harmful plants and an application rate corresponding to 80 g/ha, which were obtained by the experimental procedure mentioned above.

Veronica persica (VERPE) [5] = experiment: Herbicidal pre-emergence action, test D, single sowings (Table D8); conditions: dosage 80 g/ha, scored after about 3 weeks
Text: as §1

[6] = tested on: Amaranthus retroflexus (AMARE); experiment: Herbicidal pre-emergence action, test D, single sowings (Table D5); conditions: dosage 80 g/ha, scored after about 3 weeks
Text: as §1

[7] = tested on: Matricaria inodora (MATIN); experiment: Herbicidal post-emergence action (Table B7); conditions: rated visually after about 3 weeks, 100% = plants have died, 0% = like control plants
In short: (§2)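 Activity was scored visually against untreated plants roughly 3 weeks after treatment, 0% meaning like control and 100% plant death. Application was post-emergence onto green parts at the one-leaf stage, as aqueous suspension/emulsion with 0.5% additive, 600 l/ha, delivering 1280 or 320 g/ha to greenhouse plants in sandy loam.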

Setaria viridis (SETVI) = experiment: Herbicidal pre-emergence action, test D, single sowings (Table D3); conditions: dosage 80 g/ha, scored after about 3 weeks
Text: as §1

[8] = tested on: Digitaria sanguinalis (DIGSA); experiment: Herbicidal post-emergence action (Table B10); conditions: visual rating about 3 weeks after treatment, 100% = plants have died, 0% = like control plants
In short: as §2

Veronica persica (VERPE) [9] = experiment: Herbicidal post-emergence action (Table B12); conditions: visual rating about 3 weeks after treatment, 100% = plants have died, 0% = like control plants
In short: as §2

[10] = tested on: Digitaria sanguinalis (DIGSA); experiment: Herbicidal pre-emergence action, test C (Table C10); conditions: visual scoring after about 3 weeks, 100% = plants have died, 0% = like control plants
In short: (§3)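 Application rates of 1280 or 320 g/ha were delivered as WP or EC formulations in water with 0.5% additive, 600 L/ha, onto soil covering freshly sown seeds in sandy loam. Pots stayed under good greenhouse growth conditions, and efficacy was rated as visual percent after about 3 weeks.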

[11] = tested on: Matricaria inodora (MATIN); experiment: Herbicidal pre-emergence action, test C (Table C7); conditions: visual scoring after about 3 weeks, 100% = plants have died, 0% = like control plants
In short: as §3

[12] = tested on: Alopecurus myosuroides (ALOMY); experiment: Herbicidal post-emergence action (Table B9); conditions: rated visually after about 3 weeks, 100% = plants have died, 0% = like control plants
In short: as §2

[13] = tested on: Alopecurus myosuroides (ALOMY); experiment: Herbicidal pre-emergence action, test C (Table C9); conditions: visual scoring after about 3 weeks, 100% = plants have died, 0% = like control plants
In short: as §3

Row | SMILES | Pre-emergence action against Matricaria inodora (MATIN) [1] [%] | Pre-emergence action against Abutilon theophrasti (ABUTH) [2] [%] | Pre-emergence action against Digitaria sanguinalis (DIGSA) [3] [%] | Pre-emergence action against viola tricolor (VIOTR) (viola tricolor (VIOTR)) [%] | herbicidal activity against the harmful plants of Tables D1-D8 in pre-emergence treatment [4] | Pre-emergence action against Veronica persica (VERPE) (Veronica persica (VERPE) [5]) [%] | Pre-emergence action against Amaranthus retroflexus (AMARE) [6] [%] | Post-emergence action against Matricaria inodora (MATIN) ([7]; 1280 g/ha) [%] | Pre-emergence action against Setaria viridis (SETVI) (Setaria viridis (SETVI)) [%] | Post-emergence action against Digitaria sanguinalis (DIGSA) ([8]; dosage 320 g/ha) [%] | Post-emergence action against Digitaria sanguinalis (DIGSA) ([8]; dosage 1280 g/ha) [%] | Post-emergence action against Veronica persica (VERPE) (Veronica persica (VERPE) [9]; dosage 320 g/ha) [%] | Post-emergence action against Veronica persica (VERPE) (Veronica persica (VERPE) [9]; dosage 1280 g/ha) [%] | Pre-emergence action against Digitaria sanguinalis (DIGSA) ([10]; dosage 320 g/ha) [%] | Pre-emergence action against Digitaria sanguinalis (DIGSA) ([10]; dosage 1280 g/ha) [%] | Pre-emergence action against Matricaria inodora (MATIN) ([11]; dosage 320 g/ha) [%] | Pre-emergence action against Matricaria inodora (MATIN) ([11]; dosage 1280 g/ha) [%] | Post-emergence action against Alopecurus myosuroides (ALOMY) ([12]; 320 g/ha) [%] | Post-emergence action against Alopecurus myosuroides (ALOMY) ([12]; 1280 g/ha) [%] | Pre-emergence action against Alopecurus myosuroides (ALOMY) ([13]; dosage 1280 g/ha) [%] | other results
1 | Fc1cccc(Oc2ccc(Cl)cn2)c1-c1cc(C(F)F)no1 [Example 1-17] | 100 | 100 | 90 | 100 | very good herbicidal activity | 100 | 100 | 100 | 100 | – | – | – | – | – | – | – | – | – | – | – | Post-emergence action against Matricaria inodora (MATIN) ([7]; 320 g/ha): 100%
2 | Cc1cccc(Oc2ccc(Cl)cn2)c1-c1cc(C(F)F)no1 [Example 1-18, 5-[2-[(5-Chloro-2-pyridyl)oxy]-6-methylphenyl]-3-(difluoromethyl)isoxazole] | – | – | – | – | – | – | – | 100 | – | 100 | 100 | 100 | 100 | 100 | 100 | 100 | 100 | 100 | 100 | 90 | –
3 | Fc1cc(Cl)cnc1Oc1cccc(F)c1-c1cc(C(F)F)no1 [Example 1-19] | 100 | 100 | 100 | 100 | very good herbicidal activity | 100 | 100 | 100 | 100 | – | – | – | – | – | – | 100 | 100 | – | – | – | –
4 | Cc1cccc(Oc2ncc(Cl)cc2F)c1-c1cc(C(F)F)no1 [Example 1-20] | – | – | – | – | – | – | – | 100 | – | 100 | 100 | 100 | 100 | 90 | 100 | 100 | 100 | 100 | 100 | 100 | Pre-emergence action against Alopecurus myosuroides (ALOMY) ([13]; dosage 320 g/ha): 90%
5 | FC(F)c1cc(-c2ccccc2Oc2ccc(Cl)cn2)on1 [Example 1-35] | 80 | 80 | 100 | 90 | very good herbicidal activity | 100 | 100 | – | 100 | 90 | 100 | 100 | 100 | – | 100 | 90 | 100 | 100 | 100 | 90 | –
6 | Fc1cc(Cl)cnc1Oc1ccccc1-c1cc(C(F)F)no1 [Example 1-36] | 100 | 100 | 100 | 100 | very good herbicidal activity | 100 | 100 | – | 80 | 100 | 100 | 100 | 100 | 100 | 100 | – | – | 100 | 100 | 100 | Pre-emergence action against Alopecurus myosuroides (ALOMY) ([13]; dosage 320 g/ha): 90%
7 | Fc1cccc(Oc2ccc(Br)cn2)c1-c1cc(C(F)F)no1 [Example 1-40] | – | – | – | – | – | – | – | 100 | – | 100 | 100 | 100 | 100 | 100 | 100 | 100 | 100 | 100 | 100 | 100 | Pre-emergence action against Alopecurus myosuroides (ALOMY) ([13]; dosage 320 g/ha): 100%; Post-emergence action against Matricaria inodora (MATIN) ([7]; 320 g/ha): 100%
